“And” between values parts separate entries of the source, which are not always exact repeats. Equal entries are not always repeated.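 Step 1: Grow cells in 96-well plates. Step 2: Expose to compound for 48 hours at 5 concentrations. Step 3: Interpolate endpoints linearly; if unreached, use highest concentration. GI50: concentration for 50% inhibition of growth. At the TGI there is no net growth.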
How the values were obtained:
Assay in all cases: NCI anticancer screen, dose series, 48 h
HT29 colon = system: HT29 colon
TK-10 renal = system: TK-10 renal
RPMI-8226 leukemia = system: RPMI-8226 leukemia
NCI-H23 lung = system: NCI-H23 lung
NCI-H522 lung = system: NCI-H522 lung
CCRF-CEM leukemia = system: CCRF-CEM leukemia
SNB-75 CNS = system: SNB-75 CNS
A549 NSCLC = system: A549 NSCLC
MALME-3M melanoma = system: MALME-3M melanoma
SR leukemia = system: SR leukemia

Row | Structure (SMILES) | TGI (HT29 colon) | TGI (TK-10 renal) | TGI (RPMI-8226 leukemia) | TGI (NCI-H23 lung) | TGI (NCI-H522 lung) | TGI (CCRF-CEM leukemia) | TGI (SNB-75 CNS) | TGI (A549 NSCLC) | TGI (MALME-3M melanoma) | TGI (SR leukemia) | GI50 (HT29 colon) | GI50 (TK-10 renal) | GI50 (SR leukemia) | GI50 (RPMI-8226 leukemia) | GI50 (NCI-H23 lung) | GI50 (NCI-H522 lung) | GI50 (SNB-75 CNS) | GI50 (A549 NSCLC) | GI50 (MALME-3M melanoma) | GI50 (CCRF-CEM leukemia)
1 | CC(C)N(C(=O)C12C3C4C1C1C2C3C41C(=O)C(C)(C)C)C(C)C (stereo not drawn) | > 100 µM | > 100 µM | > 100 µM | > 100 µM | 56.8 µM | > 100 µM | > 100 µM | > 100 µM | > 100 µM |  |  |  |  |  |  |  |  |  |  | 
2 | C[C@@H](C1CC[C@H]2[C@@H]3[C@@H]4O[C@@H]4[C@@]4(O)CC=CC(=O)[C@]4(C)[C@H]3C[C@H](O)[C@]12C)[C@H]1C[C@]2(C)O[C@]2(C)C(=O)O1 (stereo partly drawn) | > 100 µM | > 100 µM | > 100 µM | > 100 µM | > 100 µM | > 100 µM | > 100 µM | > 100 µM | > 100 µM |  |  |  |  |  |  |  |  |  |  | 
3 | N#Cc1ncc(C(Cl)Cl)nc1Cl | 3.16 µM | 3.82 µM |  | 5.94 µM | 1.74 µM | > 6.15 µM | 6.64 µM | > 10 µM | > 6.39 µM | > 5.84 µM |  |  |  |  |  |  |  |  |  | 
4 | C/C=C1/CN2CCC34C(=C(C(=O)OC)C1CC23)Nc1ccc(O)cc14 (stereo not drawn) | > 100 µM | > 100 µM | > 100 µM | > 100 µM | > 100 µM | > 100 µM | > 100 µM | > 100 µM | > 100 µM |  |  |  |  |  |  |  |  |  |  | 
5 | Cc1ccc2nc(NC(=O)C(=O)C(C(=O)c3ccc4ccccc4c3)C3OC(=O)c4ccccc43)sc2c1 (stereo not drawn) | 31.3 µM |  | > 100 µM | 18.3 µM | 26.3 µM |  |  | 53.8 µM | 22.9 µM | 62.1 µM |  |  |  |  |  |  |  |  |  | 
6 | O=C(Nc1ccc(OS(=O)(=O)c2ccc(F)cc2)cc1)C12CC3CC(CC(C3)C1)C2 | > 100 µM | 62.6 µM | > 100 µM | > 100 µM | > 100 µM |  | 26.8 µM | > 100 µM | 54.4 µM | > 100 µM | 0.211 µM | 21.5 µM | 2.03 µM | 0.403 µM | 10.1 µM | 1.72 µM | 4.51 µM | 5.25 µM | 9.13 µM | 
7 | CC(=O)NNc1nc(C)c(C(=O)NNC(=O)C(=O)Nc2ccc(Cl)c([N+](=O)[O-])c2)s1 | > 100 µM | > 100 µM | > 100 µM | > 100 µM | 79.5 µM | 56.8 µM |  | > 100 µM | > 100 µM | > 100 µM |  |  |  |  |  |  |  |  |  | 
8 | Cc1ccc2c(c1)[n+](=O)c(C(=O)c1cccs1)c(C(F)(F)F)n2[O-] | 50 µM | 3.22 µM |  | 2.59 µM |  | 50 µM | 17.3 µM | 20.9 µM and 10.8 µM |  | 50 µM | 2.76 µM | 0.718 µM | 0.152 µM | 1.54 µM and 0.356 µM | 0.854 µM | 1.37 µM and 0.23 µM | 2.86 µM | 1.72 µM and 0.764 µM |  | 1.72 µM
9 | COc1ccc(C(=O)/C=C/c2sc(Cl)nc2Cl)cc1 | 4.66 µM | 30.3 µM | 4.77 µM | 3.39 µM | 4.85 µM | 14.7 µM | 8.29 µM | 19.5 µM | 3.33 µM |  | 1.89 µM | 4.57 µM |  | 1.36 µM | 0.973 µM | 0.452 µM | 2.56 µM | 3.72 µM | 0.805 µM | 0.267 µM
10 | CCCCCCCCSC(=O)NCCCC | 66.6 µM | > 100 µM | 57.9 µM | > 100 µM | 80.4 µM | > 100 µM | 84.7 µM | > 100 µM | 68.5 µM |  |  |  |  |  |  |  |  |  |  | 
11 | CC12Nc3ccccc3C1=C(c1ccccc1)CC1C(=O)OC(=O)C12 (stereo not drawn) | > 100 µM | > 100 µM | > 100 µM | > 100 µM | > 100 µM | > 100 µM | 73.7 µM | > 100 µM | > 100 µM |  |  |  |  |  |  |  |  |  |  | 
12 | CCCCCC/C=C/C#CCCCCCCCC(=O)O | > 100 µM | > 100 µM | > 100 µM | > 100 µM | > 100 µM | > 100 µM | > 100 µM | > 100 µM | > 100 µM |  |  |  |  |  |  |  |  |  |  | 
13 | OCC#CCOCC#Cc1ccccc1C#CCOCC#CCO |  | 68.8 µM | 35.3 µM | > 100 µM | > 100 µM | 57.1 µM |  | > 100 µM |  | > 100 µM |  | 24.4 µM | 18.5 µM | 13.7 µM | 36 µM | 66.5 µM |  | 50.9 µM |  | 18.5 µM
14 | CNC(=O)c1cc(Oc2ccc3nc(NC(=O)Nc4ccc(CN5CCOCC5)c(C(F)(F)F)c4)sc3c2)ccn1 | 5.5 µM | 14.7 µM | 4.49 µM | 4.22 µM | 8.36 µM | > 100 µM | 4.95 µM | 5.86 µM | 3.98 µM |  | 2.14 µM | 4.45 µM |  | 1.72 µM | 1.7 µM | 1.97 µM | 1.74 µM | 2.15 µM | 1.44 µM | 2.73 µM
15 | O=C(NCCCCCCCCCCCCNC(=O)c1cnc2ccccc2n1)c1cnc2ccccc2n1 | > 100 µM |  | > 100 µM |  | > 100 µM | > 100 µM | 49.3 µM | > 100 µM | > 100 µM |  |  |  |  |  |  |  |  |  |  | 
16 | Cc1c2cnccc2c(C)c2c1c1cc(O)ccc1n2C(C)C | 11.5 µM | 8.55 µM | 3.19 µM | 3.83 µM | 2.54 µM | 5.81 µM | 2.46 µM | 8.17 µM | 2.58 µM |  | 3.11 µM | 3.31 µM |  | 1.05 µM | 0.721 µM | 0.475 µM | 1.2 µM | 0.744 µM | 0.756 µM | 1.33 µM
17 | O=C1/C(=C/c2cccnc2)SC(=S)N1Cc1ccco1 | > 100 µM | 10.8 µM | > 23.7 µM | > 100 µM | 4.1 µM | 14.5 µM |  | > 100 µM | > 43.5 µM |  |  |  |  |  |  |  |  |  |  | 
18 | O=C(NC1CCN(Cc2ccccc2)CC1)c1cc(-c2cccnc2)nc2ccc(Cl)cc12 |  |  | > 100 µM | > 100 µM |  |  | 12.7 µM | 44.8 µM | > 100 µM | 12.9 µM |  |  | 2.71 µM | 6.62 µM | 18 µM |  | 2.18 µM | 4.61 µM | 7.92 µM | 

— PubChem BioAssay (NCI)
